Assay results reported in a melting point compilation (Tetko et al.; mined from patent text by program, amines drawn as free bases though some values may be those of a salt).

melting point [°C]	SMILES
110	CCc1nnc(C(Cc2ccc(OCCc3nc(-c4ccccc4)oc3C)cc2)c2ccccc2)o1 (stereo not drawn)
90 to 91	COC(=O)c1ccccc1C1(c2ccccc2)OCC(CCl)O1 (stereo not drawn)
229 to 231	Clc1cccc(Nc2nnc(-c3ccc4nonc4c3)s2)c1Cl
170 to 172	CCc1nnc(-c2cn3c(C)c(CC)c(OC)nc3n2)o1
76	Cc1ccccc1OCCC(=O)N(C)c1ccccc1
132 to 133	O=C(O)C1Cc2cc(CCNS(=O)(=O)c3ccccc3)ccc2O1 (stereo not drawn)
49	C=C(C)C(=O)OCC(COC(=O)C(=C)C)Cc1ccc(-c2ccc(OC(=O)C(=C)C)cc2)cc1
79 to 82	CC(C)(C)c1ccc(OC2CCOC2)c(N)c1 (stereo not drawn)
155 to 158	N#Cc1ccc(-c2ccc(OS(N)(=O)=O)c(Cl)c2)cc1Cn1cncn1
76 to 77	Oc1cccc(OCCCC(O)(O)C(F)(F)F)c1
123 to 125	C=C(Cc1ccc(C=Cc2ccc(CC(=C)C(=O)OCC)cc2)cc1)C(=O)O
130	CCc1c(-c2cccnn2)ssc1=S
38	CCOC=Nc1sccc1C#N
205 to 207	CCCCN(CCCC)c1ccc(C=Cc2cc(C)c(C=CC3=C(C#N)C(=C(C#N)C#N)OC3(C)C(F)(F)F)cc2C)c(OC)c1 (stereo not drawn)
72 to 77	CC(C)(C)OC(=O)CN1CCC(C)(N)C1=O (stereo not drawn)
126 to 129	Cc1oc(=O)c(Nc2ccccc2F)nc1Cl
203 to 204	Cc1ccc(-c2ccc3c(c2)C=C(C(=O)Nc2ccc(CN4CCN(c5ncccn5)CC4)cc2)CC3)cc1
138 to 149	CN1CCCC1=NC(=O)Nc1cccc(Br)c1
121 to 122	CCNC(=O)N1C(=O)Cc2cc(Cl)ccc21
51.5 to 52.5	CCOC(=O)c1ccc(Br)cc1COC(C)=O
183 to 185	O=S(=O)(/C=C/c1ccc(F)cc1)CS(=O)(=O)/C=C/c1ccc(F)cc1
264 to 266	CNc1nc(-c2cc(C)c(O)c(C)c2)cc2ccc(CN3CCN(C)CC3)cc12
236 to 240	NC(=O)Cc1cc(Oc2ccc3c(ccn3C(=O)Nc3ccc(N4CCN(C5CC5)CC4)c(C(F)(F)F)c3)c2)ncn1

melting point [°C]	SMILES
85	CCC(NC(=S)NCc1ccc(C(C)(C)C)cc1)c1ccc(NS(C)(=O)=O)c(F)c1 (stereo not drawn)
225	O=C(O)CCCc1cc2nc(Cl)ccc2n1S(=O)(=O)c1ccc2c(c1)CCO2
138 to 139	CCOC(=O)c1nc(/C=C/c2ccc([N+](=O)[O-])o2)no1
96 to 97	Cc1c(C)c(C(CO)c2ccc(C(C)C)cc2)c(O)c(C)c1Br (stereo not drawn)
43 to 45	CC(O)c1cnc(C(F)(F)F)nc1 (stereo not drawn)
238 to 239	N#Cc1c[nH]nc1-c1ccc([N+](=O)[O-])o1
124 to 126	CCCCC(=O)Nc1c(C(=O)c2cccc(C)c2)[nH]c2cc(Cl)ccc12
137 to 140	CN1OCC(C(O)c2cc(C(C)(C)C)c(O)c(C(C)(C)C)c2)C1=O (stereo not drawn)
134 to 136	CC1(O)OC(=O)C(c2c(F)cc(F)cc2F)=C1c1cccs1 (stereo not drawn)
137	CC(C1CC1)C(O)(Cn1nc[nH]c1=S)c1ccc(Cl)cc1 (stereo not drawn)
> 250	CC(=O)Nc1cccc(-c2nc3ncccc3[nH]2)c1
206 to 208	CCN(Cc1cc(Br)ccc1OCc1ccccc1)c1ccc(-c2nnn[nH]2)cc1
61 to 62	COC(=O)C(c1ccc(Cl)cc1)C(OC)OC (stereo not drawn)
214 to 217	NS(=O)(=O)c1cc(C(=O)O)cc(N2CCCC2)c1Oc1ccccc1
87 to 88	CCOC(=O)[C@H](Cc1ccc(O)cc1)NC(=O)OC(C)(C)C
75 to 76	Cc1ccnc2c1C(=O)CC(c1cc(F)ccc1F)C2 (stereo not drawn)
158 to 160	COc1cc2c(cc1OC)C(=CN1CCN(C(=O)c3ccco3)CC1)C(=O)N2
188 to 190	Cc1c(CCC2CC(O)CC(=O)O2)c2c(c(C)c1OC(=O)c1ccccc1)CC(C)(C)O2 (stereo not drawn)
222 to 223	Nc1ccccc1NC(=O)c1cc2cc(OCCO)ccc2[nH]1
122 to 123	CNC(=O)c1ccccc1Sc1ccc(C)cc1[N+](=O)[O-]
80 to 86	CC#CCOc1ccc(S(=O)(=O)NC(C(=O)NO)c2ccc(OCCN3CCOCC3)cc2)cc1 (stereo not drawn)
74 to 75	Nc1ccccc1OCc1nc(Cl)ccc1Cl
171 to 174	FC(F)c1nc2ccccc2n1-c1nc(Nc2ccccc2)nc(N2CCOCC2)n1

melting point [°C]	SMILES
93 to 95	C#CCOC(C(=O)NCCc1ccc(O)c(OC)c1)c1ccc(Cl)cc1 (stereo not drawn)
214 to 215	Cc1ccc(C(=O)Nc2c(NC(=O)CN3CCN(C)CC3)ccc3c2C(=O)c2ccccc2C3=O)cc1
104 to 106	COC(=O)C1=Cc2cc(Br)ccc2N(c2ccccc2)CC1
56.5 to 57.5	CC(=O)/C=C(\C)c1ccc(C2CCCCC2)c(Cl)c1
103 to 104	CC1CC(O)=CC(=O)O1 (stereo not drawn)
127 to 129	O=CN(O)C(CCCO)CS(=O)(=O)c1ccccc1Oc1ccc(Cl)cc1 (stereo not drawn)
168 to 169	COc1ccc(C2Sc3cc(Cl)ccc3NC(=O)C2=O)cc1 (stereo not drawn)
174 to 175	CC1(C)OC(c2ccc(S(C)(=O)=O)c(Cl)c2)=C(c2ccccc2)C1=O
156 to 157	CCCCOC(=O)COc1ccc(C(=O)Nc2ccccc2Sc2ccc(Cl)cc2-c2nnn[nH]2)cc1
67 to 70	C=C1C(=O)N(C)CCC1c1cccc(OC)c1 (stereo not drawn)
154 to 155	CCOC(=O)c1c(CN(CC)CC)nc2sc3c(c2c1-c1ccc(OC)c(OC)c1)CCN(C(=O)Nc1ccccc1)C3
172 to 173	O=C1c2cccc3cccc(c23)C(=O)N1CCO
187 to 189	OCC1OC(n2cnc3c(Cl)ncc(F)c32)C(O)C1O (stereo not drawn)
> 300	CCc1nc(C)cn1-c1cc2c(cc1C(F)(F)F)[nH]c(=O)c1nnc(CP(=O)(O)O)n12
136 to 138	CCOc1c(C)c(N2CCN(c3ccc(F)cc3)CC2)c(C)c2c1OC(C)C2 (stereo not drawn)
216 to 218	Cc1ccc(-c2ccnc3c(C(=O)c4cccs4)cnn23)cc1NC(=O)c1ccccc1
88 to 90	CCOC(=O)c1cnn2c(C(=O)N3CCN(C(=O)OC(C)(C)C)CC3)c(Cc3cccc(F)c3C)c(-c3ccccc3)c2c1Cl
168 to 170	CC(=O)Nc1ccc(C(=O)CCC(=O)O)cc1Cl
59 to 61	CCCCOc1c2ccccc2nc2c1c(C)nn2-c1ccccn1
135 to 136	CCOc1cc(OCCCc2cn(-c3ccc(C(F)(F)F)cn3)nc2-c2ccccc2)ccc1CCC(=O)O
247 to 249	CC(=O)NCC1CN(c2ccc(N3CCN(c4nnc(C)s4)CC3)c(F)c2)C(=O)O1 (stereo not drawn)
174	CC(C)(Cc1ccc(Cl)cc1)C(O)(Cn1ccnc1)c1ccc(Cl)cc1 (stereo not drawn)
90 to 91	O=[N+]([O-])c1ccc(OCc2ccc(F)cc2)cc1F

melting point [°C]	SMILES
145 to 146	NCCOc1ccc2[nH]c3ccccc3c2c1
188 to 190	Cc1cccc(C(=O)N2CCC3(CC2)CSC2=C(O3)c3ccccc3C(=O)C2=O)c1
149 to 152	CC(NC(=O)OC(C)(C)C)C(=O)Nc1cc(OCC(F)(F)F)ccc1-c1cccnc1 (stereo not drawn)
96 to 98	COc1ccc(CCNC(=O)C(F)(F)F)cc1S(=O)(=O)Cl
208 to 209	O=C(Cc1cccc(C(=O)O)c1)Nc1cccc(/C=C/c2nc(C3CCC3)cs2)c1
247 to 251	CN(C)Cc1c(-c2ccccn2)[nH]c2ncnc(Nc3cccc(Cl)c3)c12
167 to 169	CS(=O)(=O)c1ccc(-c2cnn(C=C(F)C(F)(F)C(F)(F)F)c(=O)c2-c2ccc(F)cc2)cc1
235	COc1cc2c(=O)n(CCOCCO)c3c4cc5c(cc4ncc3c2cc1OC)OCO5
101 to 105	CC(C)C[C@H](NC(=O)c1ccco1)C(=O)N[C@@H](C(C)C)[C@@H](O)c1c(-c2ccccc2)c1=O
66 to 68	CCOC(=O)Cc1c(C(=O)OCC)c(C)cn1CCOS(C)(=O)=O
96 to 98	COc1ccccc1OCCCCCOc1ccc(C(=N)N)cc1
57 to 58	CC(=Cc1ccccc1)c1ccc2c(c1)SC(C)(C)S2
135 to 138	COC(=O)c1cnc(N2CCN(Cc3ccccc3)CC2)nc1OC
91 to 92	CC(=O)Sc1cc(-c2ccc(C(F)(F)F)n(C)c2=O)c(F)cc1Cl
156 to 157	Cc1cc(C)c(C(O)c2ccc(-n3ccnc3)c(Cl)c2)c(C)c1 (stereo not drawn)
71	CCOC(=O)C(=O)c1scc(Br)c1Br
53 to 65	COc1ccccc1CN[C@H]1CCCN(CCCCCC(=O)O)[C@H]1c1ccccc1 (relative stereo)
300 to 302	CS(=O)(=O)c1ccc(-c2[nH]c3ccc(Cl)cc3c2-c2ccccc2Cl)cc1
152 to 154	CCOC(=O)c1cc(C(=O)O)nc2cc(Cl)cc(Cl)c12
165 to 167	CC(=O)N[C@H]1C(n2cc(Cl)cnc2=O)O[C@H](COC(C)=O)[C@@H](OC(C)=O)[C@@H]1OC(C)=O (stereo partly drawn)
110 to 112	CCCN1N=C2C(=Cc3ccccc3C)CSCC2C1c1ccccc1C (stereo not drawn)
224 to 226	Cc1ccccc1C(=O)Nc1ccc(C(=O)N2CCCC(O)c3cc(Cl)ccc32)c(C)c1 (stereo not drawn)

SMILES	melting point [°C]
COC(=O)CCc1ccc(C#CC2(O)CN3CCC2CC3)c(CO)c1 (stereo not drawn)	35.8
CCO[PH](=O)OP(=O)(CNC(C)(c1ccccc1)c1cc(C(C)(C)C)c(O)c(C(C)(C)C)c1)OCC (stereo not drawn)	95 to 110
c1c2c(cc3c1OCO3)CCNCC2	82 to 84
c1n[nH]nc1C12CCCN(CC1)C2 (stereo not drawn)	70 to 75
CC(=O)C(C#N)c1ccc(F)cc1 (stereo not drawn)	77 to 83
COC(=O)c1ccc(C2=NOC(c3cc(Cl)cc(C(F)(F)F)c3)(C(F)(F)F)C2)c2ccccc12 (stereo not drawn)	112
CN(C)CCN(C)C(=O)Oc1ccc(Cl)cc1Cn1nc(-c2ccc(C(F)(F)F)cc2)oc1=O	127 to 129
